Test results taken from patent publication US8937050B2, “Methods and compositions for treatment of autism” (The Johns Hopkins University, priority 2011, dated 2015).

Key:
[1] = system: BIP, phosphorylated eIF2α, XBP1; test: Immunoblot analyses of UPR protein expression and XBP1 splicing; type: cell-based, human
Procedure: Cell lysates were collected in mammalian protein extraction reagent (m-PER; Thermo Scientific, Rockford, Ill.) plus 1×protease inhibitor (Sigma-Aldrich) and 1×Halt phosphatase inhibitor (Thermo Scientific). Denatured SDS-PAGE and immunoblot analyses were performed using the following antibodies: phosphorylated JNK and β-actin from Santa Cruz Biotechnology, HSP70, HSP90, BIP, phosphorylated eIF2α, and XBP1 from Cell Signaling, APG8 (Abgent, San Diego, Calif.), and SOD2 (Stressgen, Ann Arbor, Mich.). Quantitation was performed using a Fuji Intelligent Dark box II, FUJI LAS-1000 Lite software and Image Gauge v4.22 software (Tokyo, Japan).
Expression of key components of the HSR, UPR, the autophagic response, and the antioxidant response were monitored at the transcriptional, translational, and/or post-translational level. These responses are known to be transiently activated in response to various cellular stressors. The degree of induction of each component can vary depending on the metabolic state of the cell (e.g., confluency, cell passage number) (Kultz 2003; Lallemand et al., 1998; Westerheide et al., 2009). Due to the transient nature of these responses, several components of each pathway were monitored at various time points within a 24 hour treatment. At least two normal human fibroblast lines were tested in three or more independent experiments. […] The average of the maximal increase in protein expression within a 24 hour time frame was also compared to the untreated sample. Activation of each pathway was assessed by an increase in one or more components of each pathway.
UPR markers evaluated included the central UPR regulator glucose regulated protein 78 (BIP) and other components that are stimulated after the activation of the three ER transmembrane receptors: PKR-like ER kinase (PERK), inositol requiring 1 (IRE1), and activating transcription factor 6 (Fedoroff 2006). […] 2 alpha (eIF2a) is phosphorylated by PERK, attenuates general translation, and induces activating transcription factor 4 (ATF4). CHOP promotes reactivation of PERK. XBP1 mRNA is non-conventionally spliced by the endonuclease activity of IRE1 upon UPR activation.
Normal human fibroblasts were treated with drugs as indicated. The expression of the UPR genes ATF4, CHOP, and BIP was measured as described in FIG. 2E. […] Normal human fibroblasts were treated at various time points and the average of the maximum protein expression of BIP (78 kDa) and phosphorylated eIF2α (38 kDa) is plotted as in FIG. 2F. Actin (43 kDa) was used as a loading control and is the same blot as FIG. 2F. UT denotes untreated cells. M denotes marker lane. […] Normal human fibroblasts were treated. The expression of the unspliced form (XBP1-us; 33 kDa) and the activated and spliced form of XBP1 (XBP1-s; 54 kDa) was analyzed by immunoblotting. BP1-s is a larger protein than XBP1-us due to non-canonical mRNA splicing which results in a larger carboxy-terminal domain. […] The average of the maximum expression of XBP1-s (within 24 hrs.) is plotted as in FIG. 2F. Actin was used as a loading control.

[2] = system: HSPA1A (HSP70), DNAJC3 (HSP40), HSP90AA1 (HSP90); test: RT-PCR of heat shock response (HSR) genes; type: cell-based, human; settings: for transcription of HSPA1A (HSP70): FIG. 3A
Procedure: (§1) Following the manufacturer's protocols, DNase I-treated cDNA was synthesized using Superscript III or Thermoscript reverse transcriptase (Invitrogen). PCR reactions were performed in duplicate on the Roche Lightcycler 3.5 (Basel, Switzerland) or the Bio-Rad iCycler (Hercules, Calif.) using Quantitech SYBR green PCR mix (Qiagen, Valencia, Calif.). GeNorm software calculated a normalization factor for each sample using the relative amounts of at least two of the following reference genes, β2-microglobulin, glyceraldehyde-6-phosphate, actin, and/or eukaryotic elongation factor 1A (Vandesompele et al., 2002).
Expression of key components of the HSR, UPR, the autophagic response, and the antioxidant response were monitored at the transcriptional, translational, and/or post-translational level. […] Due to the transient nature of these responses, several components of each pathway were monitored at various time points within a 24 hour treatment. At least two normal human fibroblast lines were tested in three or more independent experiments. […] The average of the maximal increase in protein expression within a 24 hour time frame was also compared to the untreated sample. Activation of each pathway was assessed by an increase in one or more components of each pathway.
To evaluate its activation, the expression of heat shock protein (HSP) 40, HSP 70, and HSP 90 family members was monitored. […] Normal human fibroblasts were treated and the mRNA expression of HSPA1A (HSP70), DNAJC3 (HSP40), and HSP90AA1 (HSP90) was measured and plotted as in FIG. 2E.

Sickle Cell Disease = settings: Hsiao et al., 2006; cited from earlier work
JNK pathway = test: Immunoblot analysis of JNK phosphorylation; type: cell-based; settings: normal human fibroblasts, within 24 hours; FIG. 2F
Procedure: Normal human fibroblasts were treated at various time points. Treatment was initiated at the indicated times prior to collection. The average of the maximum protein expression (within 24 hours) for three or more independent experiments is shown as fold change (drug treated/untreated). Actin (43 kDa) was the loading control. M denotes the marker lane. […] The * statistically significant increase in a measurement between drug treated and untreated or control samples or a statistically significant decrease in a measurement between drug treated and drug treated samples in the presence of SP600125 (p≦0.05) (n≧3 independent experiments unless otherwise noted) (Bars=SEM).

human recombinant SIRT1 = target: T1, human recombinant SIRT1 (Homo sapiens, UniProt Q96EB6); test: Fluorescence-based SIRT1 activity assay; type: biochemical; settings: for SIRT1 activity: low and high (10 times) concentration, FIG. 9
T1 construct: purchased Cayman Chemical Company 10010401
T1 sequence (Q96EB6 1-747): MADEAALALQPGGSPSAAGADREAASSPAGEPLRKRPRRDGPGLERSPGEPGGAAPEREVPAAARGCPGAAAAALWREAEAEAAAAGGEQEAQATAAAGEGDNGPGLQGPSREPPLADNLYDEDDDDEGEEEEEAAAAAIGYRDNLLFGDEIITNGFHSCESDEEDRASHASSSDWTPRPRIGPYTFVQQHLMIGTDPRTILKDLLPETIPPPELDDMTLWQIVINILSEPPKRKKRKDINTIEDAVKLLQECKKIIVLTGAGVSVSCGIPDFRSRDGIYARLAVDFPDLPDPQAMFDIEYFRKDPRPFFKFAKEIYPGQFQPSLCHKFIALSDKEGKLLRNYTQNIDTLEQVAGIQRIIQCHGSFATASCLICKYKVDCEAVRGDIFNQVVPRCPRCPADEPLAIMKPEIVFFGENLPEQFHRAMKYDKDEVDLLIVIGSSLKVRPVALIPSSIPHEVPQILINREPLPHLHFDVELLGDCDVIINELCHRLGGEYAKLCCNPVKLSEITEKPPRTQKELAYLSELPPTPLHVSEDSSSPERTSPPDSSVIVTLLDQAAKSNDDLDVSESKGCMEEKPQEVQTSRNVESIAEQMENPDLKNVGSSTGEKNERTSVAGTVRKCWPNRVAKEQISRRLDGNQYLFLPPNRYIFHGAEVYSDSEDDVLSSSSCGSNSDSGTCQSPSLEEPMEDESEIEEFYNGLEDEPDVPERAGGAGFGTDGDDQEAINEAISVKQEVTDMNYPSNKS
Procedure: A fluorescence-based SIRT1 activity assay was performed in triplicate following the manufacturer's protocol (10010401; Cayman Chemical Company, Ann Arbor, Mich., USA). The percent developer interference was below 3% for each small molecule. The percent fluorophore interference was below 9% for each small molecule. The acceptable interference values were ≦10%.
To determine whether SIRT1 activation was a common biochemical activity of the small molecules under study, a fluorescence-based in vitro SIRT1 activity assay was performed with two concentrations of each drug: that used to treat normal primary human fibroblasts in the experiments reported here (low), and 10 times that concentration, which is lethal in cell culture (high). […] This was a non-cell-based assay, and therefore, it is difficult to determine the effects of 4PBA and SFN on SIRT1 activity in vivo. Regardless, while SIRT1 activation may play a role in the induction of cellular stress responses (Anastasiou et al., 2006), direct biochemical activation or inhibition of SIRT1 is not necessary for the common pharmacological induction of the adaptive cell survival response by all four small molecules.
SIRT1 activity assay. SIRT1 activity was measured by incubating an acetylated lysine substrate with human recombinant SIRT1, cosubstrate NAD+ and the indicated concentration of each small molecule. The percent inhibition of SIRT1 is plotted. (Bars=SEM for triplicate measurements; *p≦0.05; paired t-test).

NFE2L2, HMOX1, and SOD2 = test: RT-PCR of antioxidant genes; type: cell-based, human; settings: for HMOX1 mRNA levels / NFE2L2 mRNA levels / SOD2 mRNA levels: normal human fibroblasts, 18 hours, FIG. 5C
Procedure: as §1
The expression of three key components was examined—(i) nuclear factor erythroid 2-like 2 (NFE2L2), (ii) heme oxygenase 1 (HMOX1), and (iii) superoxide dismutase 2 (SOD2). […] Normal human fibroblasts were treated for 18 hours. The expression of NFE2L2, HMOX1, and SOD2 was measured as described in FIG. 2E.

[3] = normal human fibroblasts, FIG. 4B

| Compound | BIP expression at the translational level [1, 3] | transcription of HSPA1A (HSP70) ([2]; normal human fibroblasts) | Therapeutic Effect (Sickle Cell Disease) | JNK pathway (JNK phosphorylation) (JNK pathway) | SIRT1 activity (human recombinant SIRT1) | HMOX1 mRNA levels (NFE2L2, HMOX1, and SOD2) | NFE2L2 mRNA levels (NFE2L2, HMOX1, and SOD2) | SOD2 mRNA levels (NFE2L2, HMOX1, and SOD2) | further results |
| --- | --- | --- | --- | --- | --- | --- | --- | --- | --- |
| NC(=O)NO [HU, hydroxyurea] | significantly increased | not stimulated | increase F-cell production | activated | no effect | significantly increased | increased | increased |  |
| CC(/C=C/C(=O)NO)=C\[C@@H](C)C(=O)c1ccc(N(C)C)cc1 [TSA, trichostatin A] | significantly increased | increased | increase F-cell production | activated | no effect | significantly increased | increased | increased |  |
| C[S@@+]([O-])CCCCN=C=S [SFN, 1-isothiocyanato-4R-(methylsulfinyl)butane] | significantly increased | increased |  | activated |  | significantly increased | increased | increased | BIP increase at the translational level ([1]; in vitro sulforaphane studies): 2-3 fold; amount of spliced XBP1 protein increase ([1]; in vitro sulforaphane studies): 3-4; total amount of XBP1 protein increase ([1]; in vitro sulforaphane studies): 3-4; eIF2α phosphorylation [1, 3]: modestly increased; pro-survival capabilities of all three UPR branches ([1]; transcriptional, post-transcriptional, translational and post-translational levels): activated; transcription of HSP40 increase ([2]; in vitro sulforaphane studies): 3 fold; transcription of HSP70 increase ([2]; in vitro sulforaphane studies): 7 fold; transcription of HSP 90 increase ([2]; in vitro sulforaphane studies): 3 fold; mRNA expression of heat-shock proteins genes increase ([2]; normal human fibroblasts, 5 micromolar (μM)): 3-7 fold; inhibition at 5000 µM (human recombinant SIRT1; 5 mM): 14%; inhibition at 50000 µM (human recombinant SIRT1; 50 mM): 40%; expression of HMOX1 increase (NFE2L2, HMOX1, and SOD2; in vitro sulforaphane studies): 6 fold; expression of NFE2L2 increase (NFE2L2, HMOX1, and SOD2; in vitro sulforaphane studies): 3 fold; expression of SOD2 increase (NFE2L2, HMOX1, and SOD2; in vitro sulforaphane studies): 4 fold |
| 4-phenylbutyrate [4PBA] | significantly increased | increased | increase F-cell production | activated |  | significantly decreased | increased | increased | inhibition of SIRT1 activity (human recombinant SIRT1; 50 mM, high): 54% |
